Reference: US20230321064A1, “Products for Treating the JNCL Disease” (Beyond Batten Disease Foundation, priority 2020, published 2023)
“Also recorded” adds a separate entry of the source. Where two headings read alike, the source gives them in different places.

Columns and labels:
[1] = tested on: Cln3^Δex7-8 mice; test: Lysosomal storage in cerebellum (SCMAS staining); assay type: in vivo, mouse; settings: 12 months of age
Procedure: (§1) Cln3^Δex7-8 mice were obtained from the Jackson Laboratory. Control (C57BL/6J) and Cln3^Δex7-8 mice were housed 3-4 per cage in a room with a 12-h light/12-h dark cycle. Food and water were provided ad libitum. All mice used in this study were analyzed at 8 and 12 months of age and were littermates produced by crossing heterozygous Cln3^Δex7-8 mice. Only males were used for this analysis. Investigators were blinded when analyzing the data, and no randomization was necessary.
For oral administration, Trehalose was dissolved in drinking water to a final concentration of 2% and changed twice a week. […]
(§2) Serotec, Cat. No. MCA1957), GFAP (DAKO, Cat. No. Z0334), Subunit C of mitochondrial ATP synthase (SCMAS; Abcam, Cat. No. ab181243), or cleaved caspase 3 (Asp175) (Cell Signaling, Cat. No. 9661S) followed by either rabbit anti-rat (VectorLab) or swine anti-rabbit (DAKO) secondary antibodies, and immunoreactivity detected with Vectastain ABC (avidin-biotin) kit (Vector) and diaminobenzidine as a chromogen.
Non-overlapping images were captured, on three consecutive sections, through each region of interest. […] For quantification of storage and inflammation, images were analyzed using ImageJ analysis software (NIH), using an appropriate threshold that selected the foreground immunoreactivity above background. […]

[2] = tested on: CLN3 1kb mutant human fibroblasts; test: Glycosphingolipid and lysosomal storage in CLN3 1 kb deletion mutant fibroblasts; assay type: cell-based
[3] = cited from earlier work
[4] = tested on: Cln3^Δex7-8 mice; test: Neuronal cell death, cleaved caspase-3 immunohistology in brain sections; assay type: in vivo, mouse; settings: for cell death (cleaved CAS-3) in the VPM/VPL region: 12 months of age, oral, 2% Trehalose in drinking water, Miglustat in chow (FIG. 1E)
Procedure: as §1
(§3) For oral administration, Trehalose was dissolved in drinking water to a final concentration of 2% and changed twice a week. Trehalose-containing water was given to Cln3^Δex7-8 mice and WT mice by spontaneous oral administration starting at 21 days of age and continuing until the day the mice were sacrificed for neuropathology studies.
(§4) Miglustat was administered in mixture with the food pellet starting at 21 days of age and continuing until the day the mice were sacrificed for neuropathology studies. Miglustat food was prepared by TestDiet using the 5V5R rodent diet (LabDiet). Two concentrations were used: 1.2 g/Kg chow (indicated as “low concentration”) and 7.2 g/Kg chow (indicated as “high concentration”) and two separate groups of Cln3^Δex7-8 mice were fed with either diet. One additional group of Cln3^Δex7-8 l mice was fed with a combination of the low-concentration Miglustat food and 2% Trehalose water.
(§5) Twelve-month-old homozygous Cln3^Δex7-8 mice and age-matched controls (WT mice) were anaesthetized with isoflurane and transcardially perfused with PBS followed by 4% buffered paraformaldehyde in 0.1 M sodium phosphate buffer, pH 7.4. Brains were subsequently removed and postfixed overnight. Before sectioning, the brains were cryoprotected in a solution containing 30% sucrose in Tris-buffered saline (TBS: 50 mM Tris, pH 7.6). Consecutive 40 μm floating coronal sections were collected in 96-well plates. Series of sections were then stained with primary antisera against CD68 (AbD
as §2
(§6) Non-overlapping images were captured, on three consecutive sections, through each region of interest. All RGB images were captured via a live video camera (JVC, 3CCD, KY-F55B), mounted onto a Zeiss Axioplan microscope using a x 40 objective and saved as JPEGs. All parameters including lamp intensity, video camera set-up and calibration were maintained constant throughout image capturing. For quantification of storage and inflammation, images were analyzed using ImageJ analysis software (NIH), using an appropriate threshold that selected the foreground immunoreactivity above background. This threshold was then applied as a constant to all subsequent images analyzed per batch of animals and reagent used to determine the specific area of immunoreactivity for each antigen in each region. Data were plotted graphically as the mean percentage area of immunoreactivity per field ±s.e.m. for each region. For quantification of cell death, images were analyzed manually and scored for the presence of apoptotic nuclei. Data were plotted graphically as the mean number of apoptotic cells per field ±s.e.m. for each region. […]

[5] = tested on: purified trehalase; test: In vitro colorimetric trehalase assay (glucose generation, 340 nm); assay type: biochemical; settings: in the presence of miglustat; 340 nm absorbance
Procedure: To this aim, an in vitro colorimetric assay was performed to measure the rate of generation of glucose, the product of trehalose hydrolysis by trehalase. In the absence of miglustat, trehalose was rapidly hydrolysed by purified trehalase, and the glucose produced could be quantified at 340 nm absorbance. In the test conditions, the amounts of glucose detected increased over time to reach a plateau in […].

[6] = tested on: human CLN3 disease NPC derived cortical neurons; test: Glycosphingolipid and lysosomal storage in CLN3 patient iPSC/NPC derived cortical neurons; assay type: cell-based
[7] = tested on: Cln3^Δex7-8 mice; test: Microglial activation, CD68 immunohistochemistry in brain sections; assay type: in vivo, mouse
Procedure: as §1, §3, §4, §5, §2
as §6, with “Data were plotted graphically as the mean percentage area of immunoreactivity per field ±s.e.m. for each region.” left out, “nuclei.” for “nuclei. Data were plotted graphically as the mean number of apoptotic cells per field ±s.e.m. for each region.”
(S1BF), the primary visual (V1) cortex, and the dorsolateral geniculate (DLG) (Pontikis et al., 2005). To quantify microglial activation, antibodies against the microglial marker CD68 were used. […]

[8] = tested on: Cln3^Δex7-8 mice; test: Astrocytosis, GFAP immunohistochemistry in brain sections; assay type: in vivo, mouse
Procedure: as §1, §3, §4, §5, §2
Non-overlapping images were captured, on three consecutive sections, through each region of interest. All RGB images were captured via a live video camera (JVC, 3CCD, KY-F55B), mounted onto a Zeiss Axioplan microscope using a x 40 objective and saved as JPEGs. All parameters including lamp intensity, video camera set-up and calibration were maintained constant throughout image capturing. For quantification of storage and inflammation, images were analyzed using ImageJ analysis software (NIH), using an appropriate threshold that selected the foreground immunoreactivity above background. This threshold was then applied as a constant to all subsequent images analyzed per batch of animals and reagent used to determine the specific area of immunoreactivity for each antigen in each region. Data were plotted graphically as the mean percentage area of immunoreactivity per field ±s.e.m. for each region. For quantification of cell death, images were analyzed manually and scored for the presence of apoptotic nuclei. Data were plotted graphically as the mean number of apoptotic cells per field ±s.e.m. for each region. All analyses were performed blind to genotype and treatment.
[…] was also quantified by performing immunohistochemistry staining of brain sections of all test and control mice using anti-GFAP antibodies.

[9] = tested on: cln3 morphant zebrafish embryos; test: Glycosphingolipid/SCMAS storage and eye phenotype in cln3 morphant zebrafish embryos; assay type: in vivo; settings: miglustat 300 μM from 4 hpf for 88 h
[10] = Miglustat 50 μM during the final week of differentiation

In the case of `CCCCN1C[C@H](O)[C@@H](O)[C@H](O)[C@H]1CO` [Miglustat, (2R,3R,4R,5S)-1-butyl-2-(hydroxymethyl)piperidine-3,4,5-triol], the “increased storage in the cerebellum (SCMAS staining)” value [1] is reported as “no consistent effects”, the “accumulation of SCMAS” value ([2]; 50 μM miglustat) is reported as “significantly reduced” and the “localisation of CtxB (ganglioside GM1)” value ([2]; 50 μM miglustat) is reported as “restores sub-plasma membrane localisation”. The “lysosomal inclusions by EM” value ([2]; 50 μM miglustat) was “notable absence of the dark membranous whorl-like inclusions”, the “peak CtxB fluorescence (confocal line scans)” value ([2]; 50 μM miglustat) was “clearly reduces the peak CtxB fluorescence” and the “swollen mitochondria with abnormal cristae (electron microscopy)” value ([2]; 50 μM miglustat) was “normalised”. The “accumulating GSLs (ganglioside GM1 by CtxB, globosides Gb3/4 by SLxT)” value ([2]; 50 μM miglustat for 5 days) was “normalised; also recorded: significant reduction in the accumulating GSLs back to control levels”, the “elevated lysosomal Ca2+” value ([2]; 50 μM miglustat, ionomycin/GPN, Fura 2,AM) was “restored to healthy control levels” and the “localisation of CtxB (ganglioside GM1)” value ([2]; 50 μM miglustat, listed as miglustat) was “normalisation in localisation of CtxB back to the plasma membrane”. For the same compound, the “autophagy (CytoID)” value ([2]; 50 μM miglustat, live cells) was “normalisation in elevated autophagy”, the “expansion of the lysosomal system (lysotracker staining)” value ([2]; 50 μM miglustat, live cells) was “normalisation in the visible expansion of the lysosomal system” and the Solubility in water ([3]; as a free base) was “(>1000 mg/mL as a free base)”. The “Solubility in water” value [3] was “Miglustat: Highly soluble in water”, the “cell death (cleaved CAS-3) in the VPM/VPL region” value [4] was “largely suppressed” and the “cell death (cleaved CAS-3) in the VPM/VPL region” value ([4]; listed as miglustat) was “prevented”. For the same compound, the “programmed cell death (cleaved caspase-3 reactive cells)” value ([4]; regions analyzed: VPM/VPL, dLG, S1BF, V1 (FIGS. 1A-D), oral treatment) was “effective in abating programmed cell death”, the “trehalase-mediated hydrolysis of trehalose to glucose (glucose generated)” value [5] was “only a minimal amount of glucose was generated” and the “excitotoxic glutamate induced Ca2+ signalling” value [6, 10] was “normalisation of excitotoxic glutamate induced Ca^2+ signalling”. For the same compound, the “expansion of the lysosomal and autophagic vacuole systems (lysotracker and cytoID staining)” value [6, 10] was “reduction in expansion of the lysosomal and autophagic vacuole systems”, the “lipid and protein storage levels (globoside, ganglioside GM1, SCMAS)” value [6, 10] was “normalised; also recorded: reduced lipid and protein storage levels” and the lipid localisation [6, 10] was “normalisation of lipid localisation”. The “lysosomal Ca2+ content” value ([6]; Miglustat 50 μM, ionomycin/GPN, Fura 2,AM) was “normalisation of lysosomal Ca^2+ content”, the “microglial activation (CD68) in the VPM/VPL” value ([7]; FIG. 2A) was “potently prevented microglial activation; also recorded: undistinguishable from WT mice” and the “microglial activation (CD68) in the DLG” value ([7]; FIG. 2B) was “significantly decreased microglial activation”. For the same compound, the “CD68 staining in the VPM/VPL” value ([7]; low concentrations of Miglustat (1.2 g/Kg chow), FIG. 2E) was “largely reduce CD68 staining”, the “CD68 staining in the cerebellum” value ([7]; low concentrations of Miglustat, not shown) was “partially or largely reduce CD68 staining” and the “astroglial activation (GFAP staining) in the VPM/VPL region” value ([8]; 12 months of age, oral, Miglustat even at low doses (FIG. 3E)) was “largely suppressed”. For the same compound, the “astrocytosis (GFAP immunoreactivity) in the VPM/VPL” value ([8]; FIG. 3A) was “undistinguishable from that of WT mice”, the “astrocytosis (GFAP immunoreactivity) in the DLG” value ([8]; FIG. 3B) was “prevented astrocytosis” and the “astrocytosis (GFAP) in the S1BF” value ([8]; FIG. 3C) was “reduction in astrocytosis, although this did not reach statistical significance”. For the same compound, the “fluorescence intensity of glycolipids and of lipofuscin associated SCMAS storage” value [9] was “normalised; also recorded: decrease, particularly in the brain, in fluorescence intensity”, the “ganglioside GM1 storage within the brain (CtxB line scans)” value [9] was “reduced; also recorded: normalised” and the retinal area [9] was “restored to wild-type levels”.
